Common to all, as to assay type: functional
In assay [1] the test system is Apolygus lucorum. In words: Ratio of LC50 for third-instar Apolygus lucorum reared in asparagus bean pod at 15 degC to LC50 for third-instar Apolygus lucorum reared in asparagus bean pod at 20 degC.
The subject of assay [2] is Apolygus lucorum. In words: Insecticidal activity against third-instar Apolygus lucorum reared in asparagus bean pod assessed as mortality administered by dipping pods in compound solution measured after 48 hr at 30 degC.
Assay [3] has as its system Apolygus lucorum. As to the kind of experiment: Insecticidal activity against third-instar Apolygus lucorum reared in asparagus bean pod assessed as mortality administered by dipping pods in compound solution measured after 48 hr at 15 degC.
Assay [4] has as its system Apolygus lucorum. As to the kind of experiment: Ratio of LC50 for third-instar Apolygus lucorum reared in asparagus bean pod at 15 degC to LC50 for third-instar Apolygus lucorum reared in asparagus bean pod at 30 degC.
The subject of assay [5] is Apolygus lucorum. In words: Insecticidal activity against third-instar Apolygus lucorum reared in asparagus bean pod assessed as mortality administered by dipping pods in compound solution measured after 48 hr at 25 degC.
Assay [6] concerns Apolygus lucorum. In words: Insecticidal activity against third-instar Apolygus lucorum reared in asparagus bean pod assessed as mortality administered by dipping pods in compound solution measured after 48 hr at 20 degC.
In assay [7] the test system is Apolygus lucorum. As to the kind of experiment: Ratio of LC50 for third-instar Apolygus lucorum reared in asparagus bean pod at 15 degC to LC50 for third-instar Apolygus lucorum reared in asparagus bean pod at 35 degC.
Assay [8] relates to Apolygus lucorum. In words: Ratio of LC50 for third-instar Apolygus lucorum reared in asparagus bean pod at 15 degC to LC50 for third-instar Apolygus lucorum reared in asparagus bean pod at 25 degC.
Assay [9] deals with Apolygus lucorum. In words: Insecticidal activity against third-instar Apolygus lucorum reared in asparagus bean pod assessed as mortality administered by dipping pods in compound solution measured after 48 hr at 35 degC.
The subject of assay [10] is Apolygus lucorum. In words: Ratio of LC50 for third-instar Apolygus lucorum reared in asparagus bean pod at 30 degC to LC50 for third-instar Apolygus lucorum reared in asparagus bean pod at 15 degC.
Assay [11] deals with Apolygus lucorum. In words: Ratio of LC50 for third-instar Apolygus lucorum reared in asparagus bean pod at 20 degC to LC50 for third-instar Apolygus lucorum reared in asparagus bean pod at 15 degC.
Assay [12] relates to Apolygus lucorum. In words: Ratio of LC50 for third-instar Apolygus lucorum reared in asparagus bean pod at 25 degC to LC50 for third-instar Apolygus lucorum reared in asparagus bean pod at 15 degC.
For assay [13], the system named is Apolygus lucorum. As to the kind of experiment: Ratio of LC50 for third-instar Apolygus lucorum reared in asparagus bean pod at 35 degC to LC50 for third-instar Apolygus lucorum reared in asparagus bean pod at 15 degC.

By LC50 is commonly meant the concentration that kills 50% of the test population.

Converted amounts (≈) assume the structure as drawn.

For the compound `C/C(=N\C#N)N(C)Cc1ccc(Cl)nc1` [ACETAMIPRID], the RatioLC50 is reported as 1.66 in the assay with Apolygus lucorum [1], 6.11 with Apolygus lucorum [4], 8.87 in the assay on Apolygus lucorum [7] and 3.83 in the assay on Apolygus lucorum [8]. Also, the LC50 with Apolygus lucorum [2] is 264.02 µg/mL (≈ 1190 µM); in the assay with Apolygus lucorum [3], 1613.76 µg/mL (≈ 7250 µM); in the assay on Apolygus lucorum [5] it was 420.95 µg/mL (≈ 1890 µM); with Apolygus lucorum [6], 972.05 µg/mL (≈ 4370 µM); in the assay with Apolygus lucorum [9], 181.95 µg/mL (≈ 817 µM).

Regarding `CC1(C)[C@H](C=C(Cl)Cl)[C@H]1C(=O)O[C@@H](C#N)c1cccc(Oc2ccccc2)c1` [BETA-CYPERMETHRIN], the RatioLC50 with Apolygus lucorum [10] is on record as 70.27; in the assay with Apolygus lucorum [11], 36.72; with Apolygus lucorum [12], 29.23; in the assay with Apolygus lucorum [13] it was 51.35. For the same compound, the LC50 in the assay with Apolygus lucorum [2] amounted to 28.44 µg/mL (≈ 68.3 µM); in the assay on Apolygus lucorum [3], 0.4 µg/mL (≈ 0.961 µM); in the assay with Apolygus lucorum [5], 11.83 µg/mL (≈ 28.4 µM); in the assay on Apolygus lucorum [6], 14.86 µg/mL (≈ 35.7 µM); in the assay with Apolygus lucorum [9] it was 20.78 µg/mL (≈ 49.9 µM).

As for `CCCCN(CCCC)SN(C)C(=O)Oc1cccc2c1OC(C)(C)C2` [CARBOSULFAN], the RatioLC50 with Apolygus lucorum [1] was 2.36; in the assay with Apolygus lucorum [4] it was 1.12; with Apolygus lucorum [7] it was 1.75; in the assay on Apolygus lucorum [8], 1.37. Further, the LC50 in the assay on Apolygus lucorum [2] is 246.4 µg/mL (≈ 647 µM); with Apolygus lucorum [3], 274.15 µg/mL (≈ 720 µM); in the assay with Apolygus lucorum [5] it was 199.4 µg/mL (≈ 524 µM); in the assay on Apolygus lucorum [6], 116.07 µg/mL (≈ 305 µM); with Apolygus lucorum [9] it was 156.75 µg/mL (≈ 412 µM).

For `N#Cc1nn(-c2c(Cl)cc(C(F)(F)F)cc2Cl)c(N)c1[S+]([O-])C(F)(F)F` (configuration not stated) [FIPRONIL], the LC50 in the assay on Apolygus lucorum [2] was 0.33 µg/mL (≈ 0.755 µM); in the assay with Apolygus lucorum [3], 0.34 µg/mL (≈ 0.778 µM); with Apolygus lucorum [5], 0.72 µg/mL (≈ 1.65 µM); with Apolygus lucorum [6] it was 1.69 µg/mL (≈ 3.87 µM); in the assay with Apolygus lucorum [9], 0.1 µg/mL (≈ 0.229 µM). Further, the RatioLC50 came to 1.03 in the assay on Apolygus lucorum [4], 5.76 in the assay with Apolygus lucorum [11], 3.4 with Apolygus lucorum [7] and 2.12 with Apolygus lucorum [12].

For the compound `CC1(C)C(/C=C(\Cl)C(F)(F)F)C1C(=O)O[C@@H](C#N)c1cccc(Oc2ccccc2)c1` (some centres not stated) [GAMA-CYHALOTHRIN], the RatioLC50 in the assay with Apolygus lucorum [10] was 2.86; with Apolygus lucorum [11] it was 1.01; in the assay on Apolygus lucorum [12], 1.11; in the assay with Apolygus lucorum [13] it was 3.76. In addition, the LC50 with Apolygus lucorum [2] is 72.22 µg/mL (≈ 161 µM); in the assay with Apolygus lucorum [3], 25.28 µg/mL (≈ 56.2 µM); with Apolygus lucorum [5] it was 27.96 µg/mL (≈ 62.2 µM); in the assay on Apolygus lucorum [6] it was 25.6 µg/mL (≈ 56.9 µM); in the assay on Apolygus lucorum [9], 95.03 µg/mL (≈ 211 µM).

Regarding `O=[N+]([O-])/N=C1\NCCN1Cc1ccc(Cl)nc1` [IMIDACLOPRID], the RatioLC50 came out at 2.2 in the assay with Apolygus lucorum [1], 13.94 with Apolygus lucorum [4], 22.45 with Apolygus lucorum [7] and 3.24 with Apolygus lucorum [8]. The LC50 with Apolygus lucorum [2] came out at 238.47 µg/mL (≈ 933 µM); in the assay with Apolygus lucorum [3], 3324.02 µg/mL (≈ 13000 µM); in the assay with Apolygus lucorum [5] it was 1025.9 µg/mL (≈ 4010 µM); in the assay on Apolygus lucorum [6] it was 1507.97 µg/mL (≈ 5900 µM); in the assay on Apolygus lucorum [9], 148.05 µg/mL (≈ 579 µM).

Regarding `CNC(=O)ON=C(C)SC` [METHOMYL], the RatioLC50 in the assay on Apolygus lucorum [10] was 2.3; in the assay with Apolygus lucorum [11], 1.17; in the assay with Apolygus lucorum [12], 1.85; in the assay with Apolygus lucorum [13] it was 1.52. Further, the LC50 in the assay on Apolygus lucorum [2] was 1108.75 µg/mL (≈ 6840 µM); with Apolygus lucorum [3], 482.96 µg/mL (≈ 2980 µM); with Apolygus lucorum [5] it was 895.41 µg/mL (≈ 5520 µM); in the assay with Apolygus lucorum [6], 564.28 µg/mL (≈ 3480 µM); in the assay on Apolygus lucorum [9] it was 731.98 µg/mL (≈ 4510 µM).

Take `CCOP(=S)(OCC)O/N=C(\C#N)c1ccccc1` [PHOXIM]: the RatioLC50 in the assay on Apolygus lucorum [1] worked out at 1.27; with Apolygus lucorum [4] it was 1.01; with Apolygus lucorum [7] it was 1.14; in the assay on Apolygus lucorum [12] it was 1.2. For the same compound, the LC50 with Apolygus lucorum [2] was 196.5 µg/mL (≈ 659 µM); in the assay with Apolygus lucorum [3], 198.24 µg/mL (≈ 665 µM); in the assay on Apolygus lucorum [5], 237.93 µg/mL (≈ 798 µM); in the assay with Apolygus lucorum [6], 156.17 µg/mL (≈ 524 µM); in the assay on Apolygus lucorum [9], 173.53 µg/mL (≈ 582 µM).

(Values after ChEMBL document CHEMBL3045556, “Effect of temperature on the toxicity of several insecticides to Apolygus lucorum (Heteroptera: Miridae)” (2012).)
